Key:
U87MG tumor fragments = assay: animal or person; conditions: for combination effect with temozolomide (median group tumor burden at Day 36): dosed in combination with 5 mg/kg temozolomide, FIG. 19
Method: HRLN female nu/nu mice were seeded with 1 mm^3 U87MG tumor fragments subcutaneously in the flank. Final caliper and body weight measurements were taken on the last day of the study.
All animals were assessed periodically for body weight, as well as tumor burden, using standard protocols with mechanical calipers. […] Dosing was stopped for any group with two measurements of mean body weight loss of greater than 20%. The group was not euthanized, and recovery was allowed. Within a group with greater than 20% weight loss, individuals reaching the individual body weight loss endpoint were euthanized. If the group body weight loss was recovered, dosing may resume. […] Dosing was then resumed with the candidate agent at half the original dose. Animals were monitored as a group. The endpoint of the experiment was a mean tumor weight in control group (or group 1) of 2000 mm^3 or 60 days, whichever comes first. When the endpoint was reached, all the animals were euthanized.

[1] = system: U87MG human glioblastoma xenografts; assay: U87MG human glioblastoma xenograft, tumor growth delay, 49-day study (Example 2);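 also: female athymic nude mice with subcutaneous tumors, groups of ten, tumors measured twice weekly, endpoint at 2000 mm^3 tumor volume or Day 49, treated compared with control mice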
Method: The experiment consisted of groups (n=10) of female athymic nude mice bearing subcutaneous U87MG xenografts (75-144 mm^3) on Day 1. Candesartan was evaluated as monotherapies at dosages of 1, 5, 10 and 50 mg/kg administered intraperitoneally (i.p.) on a once daily for twenty-one days (qd×21) schedule. […] Dosing was initiated on Day 1, and tumors were measured twice each week until the study was ended on Day 49. Animals were monitored individually and each mouse was euthanized for endpoint when its tumor attained a volume of 2000 mm^3 (about 2 grams) or on the final day (Day 49), whichever came first. Tumor samples were collected at endpoint, and histopathology analyses were performed.
The time to endpoint (TTE) was calculated for each mouse. Treatment outcome was determined from percent tumor growth delay (% TGD), defined as the percent increase in median TTE of treated versus control mice, with differences in the TTE values between groups deemed statistically significant at P 0.05 using logrank survival analysis. Animals were also monitored for partial regression (PR) and complete regression (CR) responses. Treatment tolerability was assessed by body weight measurements and frequent observation for signs of treatment-related (TR) toxicity.
Treatment response was determined from an analysis of percent tumor growth delay (% TGD), defined as the percent increase in the median time to endpoint (TTE) in treated versus control mice; by logrank significance of differences in survival among treatment groups; and by regression responses. Plots of group mean tumor growth were also considered. Treatment tolerability was assessed by body weight measurements and frequent observation for clinical symptoms of treatment-related (TR) side effects.
Xenografts were initiated with U87MG human glioblastomas (Piedmont Research Center, Morrisville, N.C.) by serial subcutaneous transplantation in athymic nude mice. Each test mouse received a U87MG tumor fragment (1 mm^3) implanted subcutaneously in the right flank, and the growth of tumors was monitored as the average size approached the target range of 80 to 120 mm^3. […] Tumor volume was calculated using the formula: Tumor Volume (mm^3)=w^2×l/2 where w=width and l=length in mm of a U87MG tumor. Tumor weight may be estimated with the assumption that 1 mg is equivalent to 1 mm^3 of tumor volume. Therapeutic Agents
Doses of valsartan and candesartan were each formulated weekly, and were stored at 4° C. Valsartan dosing solutions were formulated at concentrations of 15 and 3 mg/mL to yield the desired 150 and 30 mg/kg dosages, respectively, in a dosing volume of 0.2 mL per 20 grams body weight (10 mL/kg). The required amount of valsartan powder for the 15 mg/mL solution was suspended in sterile saline, then dissolved with 0.1 N NaOH and pH adjusted to 7.4 with 0.1 N HCl. The 3 mg/mL valsartan dosing solution was prepared by diluting an aliquot of the 15 mg/mL valsartan solution with sterile saline. Candesartan doses were formulated in 0.5% carboxymethyl cellulose (CMC) in deionized water at concentrations of 5, 1, 0.5 and 0.1 mg/mL to yield the desired 50, 10, 5 and 1 mg/kg dosages, respectively, in a dosing volume of 10 mL/kg.
Each test agent was administered intraperitoneally (i.p.) once daily for twenty-one days (qd×21), unless otherwise indicated.
Group 1 was not treated and served as the control group for calculation of % TGD. […] Groups 4-7 received candesartan at 50, 10, 5 or 1 mg/kg, respectively. […] All doses were scaled to the body weights of the individual animals.
Tumors were measured twice each week using calipers.

[2] = combination: temozolomide 5 po qd x 5 + agent qd x 30 (doses as under E7)
[3] = combination: temozolomide 5 po qd x 5 + agent qd x 30 (doses as under E7), number of animals
[4] = Group 4: candesartan 50 mg/kg ip qd x 21
[5] = Group 5: candesartan 10 mg/kg ip qd x 21
[6] = Group 6: candesartan 5 mg/kg ip qd x 21
[7] = Group 7: candesartan 1 mg/kg ip qd x 21

`CCOc1nc2cccc(C(=O)OC(C)OC(=O)OC3CCCCC3)c2n1Cc1ccc(-c2ccccc2-c2nn[nH]n2)cc1` (stereo not drawn) [Candesartan, candesartan cilexetil] was tested, and the “MTV(n) Day 29 (median tumor volume)” value (U87MG tumor fragments; combination: temozolomide 5 po qd x 5 + agent qd x 30 (Candesartan 10 ip, Valsartan 30 ip, Carvedilol 200 po, Irbesartan 100 po, Amlodipine 10 ip, Clonidine 1 ip, Olmesartan 10 po, Ramipril 5 po, Enalapril 5 ip, Benazepril 10 ip, Quinapril 15 po, Aliskiren 50 ip, Guanabenz 1 ip, Diltiazem 20 po, Lercanidipine 3 po, Labetalol 10 sc)) was 32 (8) mm^3, the “Deaths NTR (non-treatment-related death)” value (U87MG tumor fragments; [2]) was 0 and the “Deaths TR (treatment-related death)” value (U87MG tumor fragments; [2]) was 0. For the same compound, the “Mean BW Nadir, day of nadir” value (U87MG tumor fragments; [2]) was “Day 3”, the “Regression CR (complete regression)” value (U87MG tumor fragments; [3]) was 0 and the “Regression PR (partial regression)” value (U87MG tumor fragments; [3]) was 6. For the same compound, the “% TGI (percent tumor growth inhibition, compared to Group 1)” value (U87MG tumor fragments; combination: temozolomide 5 po qd x 5 + agent qd x 30 (doses as under E7), vs Group 1 temozolomide 5 alone) was 92%, the “% TGD (vs Group 1)” value [1, 4] was 9% and the “Deaths NTR” value [1, 4] was 0. The “Deaths TR” value [1, 4] was 0, the “MTV (n) Day 49” value [1, 4] was 1 (1) mm^3 and the “Median TTE” value [1, 4] was 12.7 days. The “Regressions CR” value [1, 4] was 1, the “Regressions PR” value [1, 4] was 0 and the “Regressions TFS” value [1, 4] was 1. For the same compound, the “T − C (TGD vs Group 1)” value [1, 4] was 1.1 days, the “% TGD (vs Group 1)” value [1, 5] was 20% and the “Deaths NTR” value [1, 5] was 0. The “Deaths TR” value [1, 5] was 0, the “Median TTE” value [1, 5] was 13.9 days and the “Regressions CR” value [1, 5] was 0. The “Regressions PR” value [1, 5] was 0, the “Regressions TFS” value [1, 5] was 0 and the “T − C (TGD vs Group 1)” value [1, 5] was 2.3 days. For the same compound, the “% TGD (vs Group 1)” value [1, 6] was 16%, the “Deaths NTR” value [1, 6] was 0 and the “Deaths TR” value [1, 6] was 0. For the same compound, the “Median TTE” value [1, 6] was 13.5 days, the “Regressions CR” value [1, 6] was 0 and the “Regressions PR” value [1, 6] was 0. The “Regressions TFS” value [1, 6] was 0, the “T − C (TGD vs Group 1)” value [1, 6] was 1.9 days and the “% TGD (vs Group 1)” value [1, 7] was 7%. The “Deaths TR” value [1, 7] was 0, the “Median TTE” value [1, 7] was 12.4 days and the “Regressions CR” value [1, 7] was 0. For the same compound, the “Regressions PR” value [1, 7] was 0, the “Regressions TFS” value [1, 7] was 0 and the “T − C (TGD vs Group 1)” value [1, 7] was 0.8 days. The “Deaths NTR” value ([1]; Group 7: candesartan 1 mg/kg ip qd x 21, accidental death on Day 5) was 1 and the efficacy conclusion ([1]; candesartan monotherapy 1, 5, 10, 50 mg/kg i.p. qd×21) was “not efficacious as monotherapy”.
With `COc1ccccc1OCCNCC(O)COc1cccc2[nH]c3ccccc3c12` (stereo not drawn) [Carvedilol] the “Deaths NTR (non-treatment-related death)” value (U87MG tumor fragments; [2]) was 0 and the “Deaths TR (treatment-related death)” value (U87MG tumor fragments; [2]) was 0.
In the case of `Clc1cccc(Cl)c1N=C1NCCN1` [Clonidine], the “Deaths NTR (non-treatment-related death)” value (U87MG tumor fragments; [2]) is reported as 0, the “Deaths TR (treatment-related death)” value (U87MG tumor fragments; [2]) is reported as 0 and the “Mean BW Nadir, day of nadir” value (U87MG tumor fragments; [2]) is reported as “Day 3”.
`CCOC(=O)[C@H](CCc1ccccc1)N[C@@H](C)C(=O)N1CCC[C@H]1C(=O)O` [Enalapril] was tested, and the “Deaths NTR (non-treatment-related death)” value (U87MG tumor fragments; [2]) was 0 and the “Deaths TR (treatment-related death)” value (U87MG tumor fragments; [2]) was 0.
In the case of `N=C(N)N/N=C/c1c(Cl)cccc1Cl` [Guanabenz], the “Deaths NTR (non-treatment-related death)” value (U87MG tumor fragments; [2]) is reported as 0 and the “Deaths TR (treatment-related death)” value (U87MG tumor fragments; [2]) is reported as 0.
With `CC(CCc1ccccc1)NCC(O)c1ccc(O)c(C(N)=O)c1` (stereo not drawn) [Labetalol] the “Deaths NTR (non-treatment-related death)” value (U87MG tumor fragments; [2]) was 0 and the “Deaths TR (treatment-related death)” value (U87MG tumor fragments; [2]) was 0.
In the case of `COCCCOc1cc(C[C@@H](C[C@H](N)[C@@H](O)C[C@H](C(=O)NCC(C)(C)C(N)=O)C(C)C)C(C)C)ccc1OC` [aliskerin, aliskiren], the “Deaths NTR (non-treatment-related death)” value (U87MG tumor fragments; [2]) is reported as 0 and the “Deaths TR (treatment-related death)” value (U87MG tumor fragments; [2]) is reported as 0.
`CCOC(=O)C1=C(COCCN)NC(C)=C(C(=O)OC)C1c1ccccc1Cl` (stereo not drawn) [amlodipine] was tested, and the “Deaths NTR (non-treatment-related death)” value (U87MG tumor fragments; [2]) was 1, the “Deaths TR (treatment-related death)” value (U87MG tumor fragments; [2]) was 0 and the “Mean BW Nadir, day of nadir” value (U87MG tumor fragments; [2]) was “Day 3”.
`CCOC(=O)[C@H](CCc1ccccc1)N[C@H]1CCc2ccccc2N(CC(=O)O)C1=O` [benazepril] was tested, and the “Deaths NTR (non-treatment-related death)” value (U87MG tumor fragments; [2]) was 1, the “Deaths TR (treatment-related death)” value (U87MG tumor fragments; [2]) was 0 and the “combination effect with temozolomide (median group tumor burden at Day 36)” value (“combination effect with temozolomide” below) (U87MG tumor fragments) was “next in rank-order potency”.
With `COc1ccc([C@@H]2Sc3ccccc3N(CCN(C)C)C(=O)[C@@H]2OC(C)=O)cc1` [diltiazem] the “Deaths NTR (non-treatment-related death)” value (U87MG tumor fragments; [2]) was 0, the “Deaths TR (treatment-related death)” value (U87MG tumor fragments; [2]) was 0 and the “combination effect with temozolomide” value (U87MG tumor fragments) was “modest combination effects”.
For `CCCCC1=NC2(CCCC2)C(=O)N1Cc1ccc(-c2ccccc2-c2nnn[nH]2)cc1` [irbesartan], the “Deaths NTR (non-treatment-related death)” value (U87MG tumor fragments; [2]) was 0, the “Deaths TR (treatment-related death)” value (U87MG tumor fragments; [2]) was 0 and the “Mean BW Nadir, day of nadir” value (U87MG tumor fragments; [2]) was “Day 3”.
In the case of `COC(=O)C1=C(C)NC(C)=C(C(=O)OC(C)(C)CN(C)CCC(c2ccccc2)c2ccccc2)C1c1cccc([N+](=O)[O-])c1` (stereo not drawn) [lercanidipine], the “combination effect with temozolomide” value (U87MG tumor fragments) is reported as “modest combination effects”.
In the case of `CCCc1nc(C(C)(C)O)c(C(=O)O)n1Cc1ccc(-c2ccccc2-c2nnn[nH]2)cc1` [olmesartan], the “Mean BW Nadir, day of nadir” value (U87MG tumor fragments; [2]) is reported as “Day 3”.
With `CCOC(=O)[C@H](CCc1ccccc1)N[C@@H](C)C(=O)N1Cc2ccccc2C[C@H]1C(=O)O` [quinapril] the “Deaths NTR (non-treatment-related death)” value (U87MG tumor fragments; [2]) was 0, the “Deaths TR (treatment-related death)” value (U87MG tumor fragments; [2]) was 0 and the “Mean BW Nadir, day of nadir” value (U87MG tumor fragments; [2]) was “Day 3”. The “combination effect with temozolomide” value (U87MG tumor fragments) was “next in rank-order potency”.
With `CCOC(=O)[C@H](CCc1ccccc1)N[C@@H](C)C(=O)N1[C@H](C(=O)O)C[C@@H]2CCC[C@@H]21` [ramipril] the “Deaths NTR (non-treatment-related death)” value (U87MG tumor fragments; [2]) was 0, the “Deaths TR (treatment-related death)” value (U87MG tumor fragments; [2]) was 0 and the “Mean BW Nadir, day of nadir” value (U87MG tumor fragments; [2]) was “Day 3”. The “combination effect with temozolomide” value (U87MG tumor fragments) was “next in rank-order potency”.
With `CCCCC(=O)N(Cc1ccc(-c2ccccc2-c2nnn[nH]2)cc1)[C@H](C(=O)O)C(C)C` [valsartan] the “Deaths NTR (non-treatment-related death)” value (U87MG tumor fragments; [2]) was 0 and the “Deaths TR (treatment-related death)” value (U87MG tumor fragments; [2]) was 0.
